In this test the target is T1, Human BCL-XL protein (N-terminal HiBiT tagged BCL-XL expressed in HT1080 cells) (Homo sapiens, UniProt Q07817).
T1 construct: expressed in transfected cells; host or cells: HT-1080 (ATCC CCL-121), stably transduced with lentivirus pLV-UBC-N-HiBiT-BCL-XL-PGK-puro and selected with puromycin
Put plainly: HiBiT Based Degradation Assay. The format is cell-based. As to conditions: 24 hours incubation; for DC50: BCL-XL degradation, HT1080 cells expressing N-HiBiT-BCL-XL, normalized with DMSO control, geometric mean for multiple data points, read-out: EC50 (24 h); for Ymin (24 h): bottom of BCL-XL degradation curve (remaining HiBiT-BCL-XL signal vs DMSO control), HT1080 cells. From the text: HiBiT Based Degradation Assay
Human BCL-XL protein coding open reading frame fused with N-terminal HiBiT coding sequence (N-HiBiT-BCL-XL) was synthesized from Integrated DNA Technologies (IDT). Next, N-HiBiT-BCL-XL sequence was cloned into pLV-UBC-PGK-Puro, a lentivirus plasmid purchased from Vectorbuilder, to generate pLV-UBC-N-HiBiT-BCL-XL-PGK-puro. Lentiviral particles were generated from Lenti-X™ 293T cells (Clontech) by co-transfection of pLV-UBC-N-HiBiT-BCL-XL-PGK-puro plasmids and lentiviral packaging plasmid mix (Cellecta). HT-1080 [HT1080](ATCC CCL-121™) cells were infected with the lentivirus, and HT1080 cells stably integrated with the lentiviral vector were established by incubation with 1 μg/mL puromycin (Thermofisher). HT1080 cells expressing N-terminal HiBiT tagged BCL-XL were dispensed into 384-well plates pre-spotted with compounds at varying concentrations. Three thousand cells were seeded into each well in 40 μL of RPMI 1640 media. After 24 hours of incubation at 37° C. with 5% CO2, 30 μL of the NANO-GLO® HiBiT Lytic Detection System working solution (Promega) was added to each well and incubated at room temperature for 30 min. After incubation, luminescence was read on a PHERAstar FSX Plate Reader (BMG). BCL-XL degradation at each indicated concentration was normalized with DMSO control. The BCL-XL degradation curves were plotted using a four-parameter logistic model. For compounds displaying hook effects, curve fitting was performed using bottom point of hook curves (i.e., the point of Ymin) as bottom plateau to calculate EC50. For compounds with multiple data points, the geometric mean is presented.
A general note: With HiBiT, luminescence reflects the tagged protein that the partner subunit can reach.

T1 sequence (Q07817 whole entry): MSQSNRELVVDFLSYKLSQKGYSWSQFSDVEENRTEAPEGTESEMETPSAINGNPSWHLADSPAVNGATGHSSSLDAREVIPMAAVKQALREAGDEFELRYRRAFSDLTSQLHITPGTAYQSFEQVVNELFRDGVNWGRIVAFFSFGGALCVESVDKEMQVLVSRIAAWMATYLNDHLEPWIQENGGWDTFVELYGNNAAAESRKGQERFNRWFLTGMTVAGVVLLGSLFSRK

As for `COc1c(NC(=O)CN2CCC(CCCOc3ccc(-c4ccc(N5CCc6cccc(C(=O)Nc7nc8ccccc8s7)c6C5)nc4C(=O)O)c(F)c3)CC2)ccc2c(C3CCC(=O)NC3=O)nn(C)c12` (centres unmarked) [Compound 201], the DC50 was in the range of 10 to 100 nM and the “Ymin (24 h)” value is “A (Ymin < 30%)”.

Take `Cc1c(OCC2CC3(CCN(CC(=O)Nc4cc5c(cc4C(F)(F)F)c(C4CCC(=O)NC4=O)nn5C)CC3)C2)cccc1-c1ccc(N2CCc3cccc(C(=O)Nc4nc5ccccc5s4)c3C2)nc1C(=O)O` (centres unmarked) [Compound 139]: the DC50 lay within 1000 to 10000 nM and the “Ymin (24 h)” value is “C (50% ≤ Ymin < 70%)”.

With `COc1c(NC(=O)CN2CCC3(CC2)CC(Oc2cccc(-c4ccc(N5CCc6ccnc(C(=O)Nc7nc8ccccc8s7)c6C5)nc4C(=O)O)c2C(F)(F)F)C3)ccc2c(C3CCC(=O)NC3=O)nn(C)c12` (centres unmarked) [Compound 165, 6-(8-(benzo[d]thiazol-2-ylcarbamoyl)-3,4-dihydro-2,7-naphthyridin-2(1H)-yl)-3-(3-((7-(2-((3-(2,6-dioxopiperidin-3-yl)-7-methoxy-1-methyl-1H-indazol-6-yl)amino)-2-oxoethyl)-7-azaspiro[3.5]nonan-2-yl)oxy)-2-(trifluoromethyl)phenyl)picolinic acid], the DC50 was < 10 nM and the “Ymin (24 h)” value is listed as “B (30% ≤ Ymin < 50%)”.

`Cc1c(OCC2CC3(CCN(CC(=O)Nc4cc5c(cc4F)c(C4CCC(=O)NC4=O)nn5C)CC3)C2)cccc1-c1ccc(N2CCc3cccc(C(=O)Nc4nc5ccccc5s4)c3C2)nc1C(=O)O` (centres unmarked) [Compound 121]: the DC50 lay in the range of 10 to 100 nM and the “Ymin (24 h)” value was “B (30% ≤ Ymin < 50%)”.

Consider `Cc1cc(OC[C@@H]2C[C@H]2CC2CCN(CC(=O)Nc3ccc4c(C5CCC(=O)NC5=O)nn(C)c4c3)CC2)ccc1-c1ccc(N2CCc3cccc(C(=O)Nc4nc5ccccc5s4)c3C2)nc1C(=O)O` (single isomer, unassigned) [Compound 1002c], for which the DC50 was < 10 nM and the “Ymin (24 h)” value is “A (Ymin < 30%)”.

For `Cn1nc(C2CCC(=O)NC2=O)c2ccc(NC(=O)CN3CCC(CCCOc4ccc(-c5ccc(N6CCc7cccc(C(=O)Nc8nc9ccccc9s8)c7C6)nc5C(=O)O)c(C(F)(F)F)c4)CC3)cc21` (centres unmarked) [Compound 129, 6-(8-(benzo[d]thiazol-2-ylcarbamoyl)-3,4-dihydroisoquinolin-2(1H)-yl)-3-(4-(3-(1-(2-((3-(2,6-dioxopiperidin-3-yl)-1-methyl-1H-indazol-6-yl)amino)-2-oxoethyl)piperidin-4-yl)propoxy)-2-(trifluoromethyl)phenyl)picolinic acid], the DC50 was < 10 nM and the “Ymin (24 h)” value is “B (30% ≤ Ymin < 50%)”.

Take `COc1c(NC(=O)CN2CCC3(CC2)CC(COc2ccc(-c4ccc(N5CCc6cccc(C(=O)Nc7nc8ccccc8s7)c6C5)nc4C(=O)O)c(C(F)(F)F)c2)C3)ccc2c(C3CCC(=O)NC3=O)nn(C)c12` (centres unmarked) [Compound 144, 6-(8-(benzo[d]thiazol-2-ylcarbamoyl)-3,4-dihydroisoquinolin-2(1H)-yl)-3-(4-((7-(2-((3-(2,6-dioxopiperidin-3-yl)-7-methoxy-1-methyl-1H-indazol-6-yl)amino)-2-oxoethyl)-7-azaspiro[3.5]nonan-2-yl)methoxy)-2-(trifluoromethyl)phenyl)picolinic acid]: the DC50 is 10 to 100 nM and the “Ymin (24 h)” value is “B (30% ≤ Ymin < 50%)”.

Regarding `Cc1c(OC2CC3(CCN(CC(=O)Nc4ccc5c(C6CCC(=O)NC6=O)nn(C)c5n4)CC3)C2)cccc1-c1ccc(N2CCc3cccc(C(=O)Nc4nc5ccccc5s4)c3C2)nc1C(=O)O` (centres unmarked) [Compound 194, 6-(8-(benzo[d]thiazol-2-ylcarbamoyl)-3,4-dihydroisoquinolin-2(1H)-yl)-3-(3-((7-(2-((3-(2,6-dioxopiperidin-3-yl)-1-methyl-1H-pyrazolo[3,4-b]pyridin-6-yl)amino)-2-oxoethyl)-7-azaspiro[3.5]nonan-2-yl)oxy)-2-methylphenyl)picolinic acid], the DC50 was < 10 nM and the “Ymin (24 h)” value is listed as “B (30% ≤ Ymin < 50%)”.

Regarding `COc1c(NC(=O)CN2CCC(CC[C@@H](C)Oc3ccc(-c4ccc(N5CCc6cccc(C(=O)Nc7nc8ccccc8s7)c6C5)nc4C(=O)O)c(C)c3)CC2)ccc2c(C3CCC(=O)NC3=O)nn(C)c12` (single isomer, unassigned) [Compound 223b], the DC50 is 10 to 100 nM and the “Ymin (24 h)” value is “A (Ymin < 30%)”.

With `Cc1c(OCCCC2CCN(CCOc3ccc4c(C5CCC(=O)NC5=O)nn(C)c4c3)CC2)cccc1-c1ccc(N2CCc3cccc(C(=O)Nc4nc5ccccc5s4)c3C2)nc1C(=O)O` (centres unmarked) [Compound 156], the DC50 is < 10 nM and the “Ymin (24 h)” value was “B (30% ≤ Ymin < 50%)”.

`C[C@H]1C[C@@H](CCCOc2cccc(-c3ccc(N4CCc5cccc(C(=O)Nc6nc7ccccc7s6)c5C4)nc3C(=O)O)c2C(F)(F)F)CCN1CC(=O)Nc1ccc2c(C3CCC(=O)NC3=O)nn(C)c2c1` (some centres unmarked) [Compound 215b]: the DC50 is 10 to 100 nM and the “Ymin (24 h)” value is given as “B (30% ≤ Ymin < 50%)”.

Regarding `Cc1c(OCCC[C@@H]2CCN(CC(=O)Nc3ccc4c(C5CCC(=O)NC5=O)nn(C)c4c3)[C@H](C)C2)cccc1-c1ccc(N2CCc3ccnc(C(=O)Nc4nc5ccccc5s4)c3C2)nc1C(=O)O` (stereo partly drawn) [Compound 216d, 6-(8-(benzo[d]thiazol-2-ylcarbamoyl)-3,4-dihydro-2,7-naphthyridin-2(1H)-yl)-3-(3-(3-((2R,4R)-1-(2-((3-(2,6-dioxopiperidin-3-yl)-1-methyl-1H-indazol-6-yl)amino)-2-oxoethyl)-2-methylpiperidin-4-yl)propoxy)-2-methylphenyl)picolinic acid], the DC50 is 10 to 100 nM and the “Ymin (24 h)” value is “B (30% ≤ Ymin < 50%)”.

For `Cn1nc(C2CCC(=O)NC2=O)c2ccc(NC(=O)CN3CCC4(CC3)CC(COc3ccc(-c5ccc(N6CCc7cccc(C(=O)Nc8nc9ccccc9s8)c7C6)nc5C(=O)O)c(C(F)(F)F)c3)C4)nc21` (centres unmarked) [Compound 148], the DC50 was in the range of 10 to 100 nM and the “Ymin (24 h)” value is reported as “B (30% ≤ Ymin < 50%)”.

`Cc1c(OCCC[C@H]2[C@@H]3C[C@H]2CN(CC(=O)Nc2ccc4c(C5CCC(=O)NC5=O)nn(C)c4c2)C3)cccc1-c1ccc(N2CCc3cccc(C(=O)Nc4nc5ccccc5s4)c3C2)nc1C(=O)O` (some centres unmarked) [Compound 176a]: the DC50 is 10 to 100 nM and the “Ymin (24 h)” value is reported as “C (50% ≤ Ymin < 70%)”.

For `Cc1cc(OCCCC2CCN(CCOc3ccc4c(C5CCC(=O)NC5=O)nn(C)c4c3)CC2)ccc1-c1ccc(N2CCc3cccc(C(=O)Nc4nc5ccccc5s4)c3C2)nc1C(=O)O` (centres unmarked) [Compound 178, 6-[8-(1,3-benzothiazol-2-ylcarbamoyl)-3,4-dihydro-1H-isoquinolin-2-yl]-3-[4-[3-[1-[2-[3-(2,6-dioxo-3-piperidyl)-1-methyl-indazol-6-yl]oxyethyl]-4-piperidyl]propoxy]-2-methyl-phenyl]pyridine-2-carboxylic acid], the DC50 was < 10 nM and the “Ymin (24 h)” value is listed as “A (Ymin < 30%)”.

Regarding `COc1c(NC(=O)CN2CCC3(CC2)CC(COc2ccc(-c4ccc(N5CCc6cccc(C(=O)Nc7nc8ccccc8s7)c6C5)nc4C(=O)O)c(C)c2)C3)ccc2c(C3CCC(=O)NC3=O)nn(C)c12` (centres unmarked) [Compound 128, 6-(8-(benzo[d]thiazol-2-ylcarbamoyl)-3,4-dihydroisoquinolin-2(1H)-yl)-3-(4-((7-(2-((3-(2,6-dioxopiperidin-3-yl)-7-methoxy-1-methyl-1H-indazol-6-yl)amino)-2-oxoethyl)-7-azaspiro[3.5]nonan-2-yl)methoxy)-2-methylphenyl)picolinic acid], the DC50 was < 10 nM and the “Ymin (24 h)” value is reported as “A (Ymin < 30%)”.

For the origin of these results see US20260216170A1, “TETRAHYDROISOQUINOLINE HETEROBIFUNCTIONAL BCL-XL DEGRADERS” (Treeline Biosciences, Inc., priority 2023, published 2026).
